The target in series [1] is H1N1 NA (A/PuertoRico/8/1934) (Influenza A virus, UniProt P03468). Put plainly: biochemical.
In series [2] the target is H5N1 NA (A/Goose/Guangdong/SH7/2013) (Influenza A virus, UniProt V5P6N1). Format: biochemical.
The test system of series [3] is A/Goose/Guangdong/SH7/2013 (H5N1). Put plainly: microbe, parasite or virus in culture. The settings on record: Influenza A virus, H5N1, CEF, read-out: EC50 towards influenza virus H5N1. In kind it is cell-based.
For series [4], the system named is A/Goose/Jiangsu/1306/2014 (H5N8). Put plainly: microbe, parasite or virus in culture. Format: cell-based. The settings on record: Influenza A virus, H5N8, CEF, read-out: EC50 towards influenza virus H5N8.
In a further series the test system is A/PR/8/34 (H1N1). As to the kind of experiment: microbe, parasite or virus in culture. Format: cell-based. The settings on record: Influenza A virus, MDCK, read-out: EC50 towards influenza virus H1N1.
The subject of a further series is A/Wisconsin/67/05 (H3N2). Put plainly: microbe, parasite or virus in culture. In kind it is cell-based. The settings on record: Influenza A virus, H3N2, MDCK, read-out: EC50 towards influenza virus H3N2.
Another series deals with Kunming mice. The settings on record: mouse, in vivo.
Series [5] is described as follows: in vitro. The settings on record: chicken.
Series [6] in a line: in vitro. The settings on record: dog.

One may read the IC50 as the midpoint of a concentration-inhibition curve. A higher IC50 goes with a need for much substance. The EC50 is the concentration giving half of the maximal effect. As for `CCC(CC)O[C@@H]1C=C(C(=O)O)C[C@H](NCc2ccc(OCc3cccc(B(O)O)c3)cc2)[C@H]1NC(C)=O` [Compound 2c, (3R,4R,5S)-4-acetamido-5-((4-((3-boronobenzyl)oxy)benzyl)amino)-3-(pentan-3-yloxy)cyclohex-1-ene-1-carboxylic acid], the IC50 in series [1] was 60 ± 7 nM. Also, the “fold lower potency than OSC against H5N1 in the enzymatic assay” value in series [2] turned out to be 3.9 fold. In addition, the EC50 came out at 690 ± 91 nM in [3], 1570 ± 210 nM in [4], 30 ± 30 nM in the series on A/PR/8/34 (H1N1) and 11100 ± 1150 nM in the series on A/Wisconsin/67/05 (H3N2). In addition, the “behavior abnormalities (lethargy, clonic convulsions, anorexia, ruffled fur)” value with Kunming mice is on record as “no significant behavior abnormalities”. The body weight entry in the series with Kunming mice was “increased gradually”. Further, the death entry in the series with Kunming mice is “no death occurred”. Besides, in the series with Kunming mice (1000 mg/kg), the acute toxicity entry was “no acute toxicity”. For the same molecule, the CC50 is 143000 ± 9560 nM in “in vitro [5]” and > 250000 nM in “in vitro [6]”.

The values above are taken from paper PMC9571049 (Molecules, 2022).
